Results on 62 molecules are retold here after a melting point compilation (Tetko et al.; mined from patent text by program, amines drawn as free bases though some values may be those of a salt).

In turn, `CC(C)c1ccc(N(Cc2ccc(N(C)C)cc2)C(=O)C2CCOc3cc(O)ccc32)cc1` (configuration not stated) registered a melting point of 173 °C.

As to `CCOC(=O)C(=CNc1ccc(OCC)c(C)n1)C(=O)OCC`, the melting point lay in the range of 132 to 138 °C. Molecule `N#Cc1ccc(Nc2cccc(I)c2)c([N+](=O)[O-])c1` displayed a melting point of 211 to 212 °C. `CC(C)(C)C(C)(C)Nc1nc(NC(C)(C)C(C)(C)C)nc(N2CCNCC2)n1` gave a melting point of 183 to 185 °C. `O=[N+]([O-])c1[nH]c(-c2c(Cl)cc(C(F)(F)F)cc2Cl)nc1Br` displayed a melting point of 292 to 293 °C. The molecule `CC(=O)c1cc2cc(OCC(=O)O)c(Cl)c(Cl)c2s1` came in with a melting point of 203 to 205 °C.

The molecule `CN1C2C=C(c3c[nH]c4ccc([N+](=O)[O-])cc34)CC1CC2` (configuration not stated) came in with a melting point of 234 to 236 °C.

`CC(C)Oc1ccc(C(=O)N/C(=C\c2ccc(OC(F)(F)F)cc2)C(=O)NCCO)cc1` displayed a melting point of 142 to 146 °C. `N=C(Nc1ccc(F)cc1)Nc1nc(-c2ccccc2)cs1`: the melting point is 156 to 158 °C.

Molecule `Cc1cc(-c2ccc(F)cc2)n(-c2ccc(S(N)(=O)=O)cc2)c1` yielded a melting point of 168 to 170 °C. In turn, `COc1cc(C)nc(Nc2ccccc2)n1` yielded a melting point of 75 to 76 °C. In the case of `COC(=O)c1cc(O)cc(C(=O)OC)c1[N+](=O)[O-]` it was 183 to 186 °C; in that of `CC(C)c1cc(S(=O)(=O)c2c(Br)cc(CC(=O)O)cc2Br)ccc1O`, 171 to 172 °C; in that of `O=C(Nc1nccs1)C(CC1CCCC1)c1cccc(S(=O)(=O)C(F)(F)F)c1` (configuration not stated), 61 to 64 °C.

With `O=C(c1ccccc1)c1ccc(O)c(O)c1[N+](=O)[O-]`, the melting point lay in the range of 153 to 155 °C. In the case of `CC1CC(=O)c2c(SCc3ncn(C)n3)ccc(-c3nccs3)c2C1` (configuration not stated) it was 130 to 131 °C; in that of `CC(Cl)(Cl)C(NC(=O)c1ccc(Cl)cc1)NC(=N[N+](=O)[O-])Nc1cccnc1` (configuration not stated), 170 to 172 °C; in that of `Clc1ccc(N2CCN(Cc3c[nH]c4ncccc34)CC2)cc1`, 226 to 227 °C. Turning to `CC(C)(c1ccccc1)c1ccc2nc(-c3ccc(C(F)(F)F)cc3)oc(=O)c2c1`, the melting point lay in the range of 104 to 105 °C. `CC(C)(C)c1cc(C(=O)Nc2ccc(CC(=O)O)cc2)cc(C(C)(C)C)c1O`: the melting point lay within 253 to 254 °C. As for `COC(OC)C(=O)NCc1ccc(C)cc1`, the figure is 45.8 °C; as for `Nc1cncnc1NCCN1CCC(Nc2nc3ccccc3n2Cc2ccc(F)cc2)CC1`, 208 °C; as for `Fc1ccc(-c2cncc(CN3CCN(c4ncccn4)CC3)c2)cc1`, 97 to 98 °C. Take `CC(c1cccnc1)n1nnc2cc3c(cc2c1=O)OC1CCCN1C3=O` (configuration not stated): the melting point was in the range of 195 to 196 °C. `COc1ccnc(CSc2nc3cc4c(cc3[nH]2)OCO4)c1C`: the melting point lay within 215 to 220 °C. With `Nc1ncc(-c2ccc(=O)[nH]n2)c(-c2cccnc2)n1`, the melting point amounted to 256 °C. As for `Cc1cc(Cl)ccc1OCC(=O)N1Cc2ccc(C(=O)c3ccc(-c4ccccc4)cc3)n2Cc2ccccc21`, the melting point fell in the range of 102 to 105 °C.

For `O=C(O)c1ccc(-c2c([N+](=O)[O-])oc3c2ccc2ccccc23)cc1`, the melting point was more than 300 °C. Molecule `COC(=O)CCCc1cc2cc(Cl)ccc2n1S(=O)(=O)c1ccc2nsnc2c1` came in with a melting point of 103 to 106 °C.

`NC(=O)CCCSc1cccc(Br)n1` displayed a melting point of 87 to 88 °C. Molecule `N#CC(Cl)Cc1ccc(Cl)cc1C(=O)c1ccccc1` (configuration not stated) showed a melting point of 69 to 71 °C. As to `COc1ccc(O)c(C(C)(O)c2ccccc2)c1` (configuration not stated), the melting point is 114 °C. On to `COC(=O)c1cc(OC)c(C)c2c1Oc1c(C=O)c(O)cc(C)c1C(=O)O2`, for which the melting point was in the range of 264 to 265 °C. The molecule `CCCn1c(=O)c2[nH]c(/C=C/c3ccc(C)c(C)c3)nc2n(CCC)c1=O` registered a melting point of 253 to 254 °C.

As for `CCN(c1cccc(C(=O)Nc2cc(NC(=O)c3cccc(N4CCOCC4)c3)ccc2C)c1)S(C)(=O)=O`, the melting point is 192 to 193 °C. In turn, `CNC(=S)n1ncnc1N` yielded a melting point of 184 to 185 °C.

`CCOC(=O)[C@H](CSC[C@H](Cc1ccccc1)NC(=O)OCc1ccccc1)N[C@@H](C)C(=O)O` registered a melting point of 124 to 127 °C.

For the molecule `OCc1cc(O)cc2cc(-c3ccc(O)cc3)oc12`, the melting point lay in the range of 258 to 260 °C.

`CCN(C)c1nc2cc(Br)ccn2n1` returned a melting point of 109 to 111 °C.

`CC(C)(C)OC(=O)N1CCC(c2cc(F)c3oc(-c4ccc(S(C)(=O)=O)cc4F)nc3c2)CC1` gave a melting point of 188 to 192 °C.

In turn, `CC(=O)OC(C(=O)N(C)c1ccc(N(C)C(=O)C(OC(C)=O)c2ccccc2)cc1)c1ccccc1` (configuration not stated) showed a melting point of 180 to 183 °C. Molecule `CC(C)S(=O)(=O)c1cc(C#N)c(N)c(OCCc2ccccn2)c1` showed a melting point of 122 to 123 °C.

As for `O=C(O)c1ccc(Sc2ccc(C(=O)O)c(C(=O)O)c2)cc1C(=O)O`, the melting point fell in the range of 202 to 203 °C. In turn, `O=C(NNc1ccccc1)N1CCN2C(=O)OC(c3ccccc3)(c3ccccc3)C2C1` (configuration not stated) had a melting point of 227 to 228 °C. `Fc1cccc(F)c1-c1cncn1-c1ccc(Cl)cc1` showed a melting point of 170 to 172 °C.

`CS(=O)(=O)c1ccc(-c2cnc(-c3ccc(F)cc3)s2)s1`: the melting point is 183 to 184 °C. `Cc1c(C#N)ccc([N+](=O)[O-])c1C#N` had a melting point of 122 to 124 °C.

`COc1ccc(-c2ccccc2-c2c(Cl)nc3ncnn3c2Cl)c(Cl)c1` displayed a melting point of 163 °C. `COC(=O)c1cccc(CNC(=O)C2CC2)c1C(=O)OC` gave a melting point of 240 to 242 °C. The molecule `O=C(c1ccccc1)c1ccc(-c2ccc(CBr)cc2)cc1` displayed a melting point of 110 to 112 °C. In the case of `CCOC(=O)c1n[nH]cc1[N+](=O)[O-]` it was 128 to 130 °C; in that of `Cc1cc(Nc2ccnc(Nc3ccc(S(=O)(=O)N(Cc4ccco4)C4CCN(C)CC4)cc3)n2)ccc1F`, 184 °C. For `COCC1(C)CCCOc2cc(C#Cc3ccc(C(=O)O)cc3)ccc21` (configuration not stated), the melting point stood at 112 °C. The molecule `O=C1C=CC(O)(c2cccs2)C=C1` yielded a melting point of 103 °C. For the molecule `CCCCn1cnc2c(Oc3cccc(OC)c3)nc(Nc3ccc(F)cc3)nc21`, the melting point lay within 138 to 140 °C. Take `COC(=O)c1cc(Oc2ccnc(Cl)c2)cc2ccccc12`: the melting point lay within 103 to 104 °C.

Molecule `O=C1CC2(C(=O)N1)C(=O)N(Cc1ccc(Cl)c(Cl)c1)c1ccc(Cl)cc12` (configuration not stated) yielded a melting point of 268 to 270 °C. `CCC=C(c1ccccc1N1CCCC(C)(C)C1)C(C(N)=O)c1ccc(C(=O)OCC)cc1` (configuration not stated): the melting point was in the range of 113 to 116 °C. As for `CNC(=O)n1nc(Oc2ncc(C(F)(F)F)cc2Cl)cc1C(F)(F)F`, the figure is 61 to 63 °C. The molecule `FC(F)(F)c1n[nH]cc1-c1nc(Nc2ccccn2)cs1` had a melting point of 204 to 206 °C. `COc1cc(N)c(Cl)cc1C(=O)N[C@H]1CCN(CCCN2C(=O)c3ccccc3C2=O)C[C@H]1OC` (relative stereo) returned a melting point of 208 °C. As for `Clc1ccc(-c2[nH]c3c(Cl)cc(Cl)cc3c2Cl)cc1`, the figure is 148 to 149 °C.

Usually melting point stands for the temperature of the solid-liquid transition.
